{"source": "patent US20210252173A1", "about": "“STABILIZED POLYUNSATURATED COMPOUNDS AND USES THEREOF” (RETROTOPE, INC., priority 2018, published 2021)", "key": {"[1]": {"conditions": "human, in vivo", "method": "Design/Methods: 11,11-D2-linoleic acid ethyl ester was administered to the patient at 2.7 g (BID) and periodic repeat assessments including baseline measurement of PK, activities of daily living (ADL), 25 foot walk time (25FWT), and 6 minute walk distance (6MWD) were made. In particular, ADLs were measured individually on a scale of 0-5 across a 12 element panel representing speech, strength, coordination, etc."}, "[2]": {"system": "patient with late onset Tay-Sachs disease (LOTS)", "test": "Case study in a single patient with late onset Tay-Sachs disease: ADL, 25FWT, 6MWD, tolerability", "format": "in vivo, human", "conditions": "2.7 g BID; for Composite ADL Score: baseline 0; for 25FWT: baseline 12.7", "description": "In this example, a case study of using 11,11-D2-linoleic acid ethyl ester to treat a single patient with late onset Tay-Sachs disease (LOTS) and the study results was reported."}, "[3]": {"system": "murine FRDA cell model", "conditions": "cited from earlier work"}, "[4]": {"test": "in vivo", "design": "species or system mice and rats", "conditions": "rat", "method": "Single- and repeat-dose studies are conducted in mice and rats using both oral gavage and dietary administration of substituted compounds as described herein (e.g., D-PUFA and ester thereof) for up to 26 weeks. […] The NOAELs established in the 8- and 26-week studies correspond to an average consumption of the substituted compounds studied in the amount of ˜362 and ˜452 mg/kg, respectively. The high dose diets in these studies contained no natural LA. […] This is consistent with the substituted compounds as described herein (e.g., D-PUFA and ester thereof) (di-deutero linoleic acid) being, for dietary purposes, equivalent to and biologically interchangeable with normal dietary LA as a sole source of LA by the rats in this study. […] The body weights, organ weights, percent of each organ composed of PUFAs, distribution of PUFA species in each tissue, and the PUFA composition of red blood cells are not changed versus controls."}, "[5]": {"system": "human fibroblast FRDA model", "conditions": "cited from earlier work"}, "[6]": {"conditions": "female, human, in vivo", "description": "(§1) A study in the fatal neurodegenerative disease, Infantile Neuroaxonal Dystrophy (INAD) was initiated in March 2017. At study onset, the subject with a genetic mutation in both copies of the PLA2G6 gene, was mostly unresponsive to stimuli and unable to perform virtually any activity. All normal development milestones previously acquired had been lost. Prognosis was that a feeding tube would be required in the near term progression of the disease. The patient received dosing of a D-PUFA (11,11-D2-linoleic acid), 1.8 g twice a day, for a six month trial under an Expanded Access (Compassionate Use) protocol. As they were unable to swallow a pill, soft gels containing the D-PUFA were placed in warm liquid (water or milk), pierced with a fork, and the active oil pressed into the liquid, which was then soaked into food or a cookie, and administered.\n(§2) One month and three month plasma level of deuterated polyunsaturated fatty acid was at steady state at approximately 44% total (dietary plus modified) linoleic acid, indicating excellent uptake and absorption of a therapeutic level of drug (>˜10-15%). Deuterated arachidonic acid was observed as present in the plasma at 0.6% and 3.0% of total arachidonic acid at month one and three months; respectively."}, "[7]": {"system": "patient with Infantile Neuroaxonal Dystrophy (INAD), mutation in both copies of the PLA2G6 gene", "format": "in vivo, human", "description": "as §1\nFIG. 1 summarizes the baseline and one year treatment status of the patient (degree of impairment: (0) for severely impaired, (+1) for moderately impaired, (+2) for mildly impaired or no impairment).\nAfter 2 months on drug, […] regained sufficient bulbar function to terminate syringe feeding of liquids and returned to drinking from a child's sippy cup.\nas §2\nINAD is a strictly progressive disease, only worsening with time. Stabilization of regressions and recovery of lost milestones indicated effectiveness of the test treatment in a single, severely affected INAD patient."}, "[8]": {"system": "yeast model of FRDA", "conditions": "cited from earlier work"}, "[9]": {"system": "H9C2 myoblasts", "conditions": "other oxidative stress paradigms; cited from earlier work"}, "[10]": {"system": "murine model of FRDA", "conditions": "Abeti et al. 2016; cited from earlier work"}}, "note": "Like-named read-outs stand apart in the source and are kept apart here.", "data": [{"smiles": "[2H]C([2H])(/C=C\\CCCCC)/C=C\\CCCCCCCC(=O)OCC", "note": "[11,11-D2-linoleic acid ethyl ester]", "values": [{"measurement": "D-LA(%) D-LA + H-LA Plasma", "setting": "[1]", "value": 36, "unit": "%"}, {"measurement": "D-LA(%) D-LA + H-LA RBC", "setting": "[1]", "value": 28, "unit": "%"}, {"measurement": "disease progression", "setting": "[2]", "value": "Early efficacy signs of inhibition of disease progression and some regression were seen"}, {"measurement": "tolerability / toxicities", "setting": "[2]", "value": "well tolerated with no toxicities reported"}, {"measurement": "# of ADLs improved", "setting": "[2]; 30 d", "value": 6}, {"measurement": "Composite ADL Score", "setting": "[2]; 30 d, 12 element panel, scale 0-5", "value": "+6"}, {"measurement": "25FWT", "setting": "[2]; 30 d", "value": 12.1, "unit": "s"}, {"measurement": "# of ADLs improved", "setting": "[2]; 120 d", "value": 8}, {"measurement": "Composite ADL Score", "setting": "[2]; 120 d", "value": "+9"}, {"measurement": "25FWT", "setting": "[2]; 120 d", "value": 11.2, "unit": "s"}]}, {"smiles": "[2H]C([2H])(/C=C\\CCCCC)/C=C\\CCCCCCCC(=O)O", "note": "[11,11-D2-linoleic acid, 11,11-Dideutero-cis,cis-9,12-Octadecadienoic acid]", "values": [{"measurement": "time to significant plasma levels and red blood cell (RBC) membrane incorporation", "setting": "[1]", "value": "≤ 1", "unit": "month"}, {"measurement": "cell viability", "setting": "[3]", "value": "protect cells from loss of viability"}, {"measurement": "NOAEL at 8 weeks", "setting": "[4]", "value": "~362", "unit": "mg/kg"}, {"measurement": "NOAEL at 26 weeks", "setting": "[4]", "value": "~452", "unit": "mg/kg"}, {"measurement": "cell viability", "setting": "[5]", "value": "rescue cells from loss of viability"}, {"measurement": "deuterated arachidonic acid in plasma, of total arachidonic acid", "setting": "[6]; 1 month", "value": 0.6, "unit": "%"}, {"measurement": "deuterated arachidonic acid in plasma, of total arachidonic acid", "setting": "[6]; 3 months", "value": 3.0, "unit": "%"}, {"measurement": "progression of disease, clinical examination", "setting": "[7]; 3 months, since start of trial, n=1", "value": "no progression of disease"}, {"measurement": "qualitative measures in videotaped sessions (eye tracking, responsiveness, head control, lifting, reaching and grasping)", "setting": "[7]; after 6 months", "value": "improved in qualitative measures"}, {"measurement": "drug related adverse events", "setting": "[7]; human, in vivo", "value": "no drug related adverse events of any sort reported"}, {"measurement": "safety and tolerability", "setting": "[7]; human, in vivo", "value": "safe and well-tolerated"}, {"measurement": "ability to grasp", "setting": "[7]; parents' report at 4 months", "value": "regained ability to grasp spoon and hold"}, {"measurement": "constipation", "setting": "[7]; parents' report at 4 months", "value": "constipation resolved"}, {"measurement": "eating", "setting": "[7]; parents' report at 4 months", "value": "can eat (chew and swallow) food such as banana"}, {"measurement": "responsiveness to verbal requests", "setting": "[7]; parents' report at 4 months", "value": "newly responsive to verbal requests during therapy"}, {"measurement": "salivation down", "setting": "[7]; parents' report at 4 months", "value": 99, "unit": "%"}, {"measurement": "muscle strength", "setting": "[7]; parents' report at 4 months, grasping and lifting rattle", "value": "better muscle strength"}, {"measurement": "ability to swallow", "setting": "[7]; parents' report at 4 months, vs. syringe feeding", "value": "regained ability to swallow using sipper cup"}, {"measurement": "overall patient status", "setting": "[7]; starting within a month of dosing until one year", "value": "the patient has improved"}]}, {"smiles": "[2H]C([2H])(/C=C\\CC)/C=C\\C([2H])([2H])/C=C\\CCCCCCCC(=O)O", "note": "[D4-ALA, 11,11,14,14-Tetradeutero-cis,cis,cis-9,12,15-Octadecatrienoic acid]", "values": [{"measurement": "lipid peroxidation", "setting": "[8]", "value": "decreased lipid peroxidation"}, {"measurement": "cell viability", "setting": "[3]", "value": "protect cells from loss of viability"}, {"measurement": "protection against oxidative stress", "setting": "[9]", "value": "protective against oxidative stress"}, {"measurement": "lipid peroxidation", "setting": "[10]", "value": "prevent lipid peroxidation"}, {"measurement": "cell viability", "setting": "[5]", "value": "rescue cells from loss of viability"}]}]}
